Experimental findings from ChEMBL document CHEMBL5584305, “Cladoic Acid, an Anti-Trypanosoma cruzi Polyketide from Cladosporium sp. TP-F2020” (J Nat Prod, 2024) are described below.

The source made the active and inactive calls. No cut-off for these calls is given here.

One data set has as its system Kocuria rhizophila. The experiment in a line: Antimicrobial activity against Kocuria rhizophila ATCC 9341 at 100 microg/ml incubated for 20 hrs by liquid microculture method. It is filed as functional, organism-based. The settings on record: dose 100.0 µg/ml.
The test system of the next data set is Staphylococcus aureus. Nature of the data set: Antimicrobial activity against Staphylococcus aureus FDA209P JC-1 at 100 microg/ml incubated for 20 hrs by liquid microculture method. It is filed as functional, organism-based. The settings on record: dose 100.0 µg/ml.
In another data set the test system is Escherichia coli. Nature of the data set: Antimicrobial activity against Escherichia coli NIHJ JC-2 at 100 microg/ml incubated for 20 hrs by liquid microculture method. It is filed as functional, organism-based. The settings on record: dose 100.0 µg/ml.
Data set [1] has as its system Agrobacterium radiobacter. Nature of the data set: Antimicrobial activity against Rhizobium radiobacter NBRC14554 at 100 microg/ml incubated for 20 hrs by liquid microculture method. It is filed as functional, organism-based. The conditions noted are these: dose 100.0 µg/ml.
The subject of another data set is Candida albicans. The experiment in a line: Antimicrobial activity against Candida albicans NBRC0197 at 100 microg/ml incubated for 20 hrs by liquid microculture method. It is filed as functional, organism-based. The settings on record: dose 100.0 µg/ml.
Data set [2] relates to Colletotrichum gloeosporioides. Nature of the data set: Antimicrobial activity against Glomerella cingulata NBRC5907 at 100 microg/ml incubated for 20 hrs by liquid microculture method. The conditions noted are these: dose 100.0 µg/ml. It is filed as functional, organism-based.
The test system of a further data set is Trichophyton rubrum. The experiment in a line: Antimicrobial activity against Trichophyton rubrum NBRC5467 at 100 microg/ml incubated for 20 hrs by liquid microculture method. It is filed as functional, organism-based. The settings on record: dose 100.0 µg/ml.
For a further data set, the system named is Saccharomyces cerevisiae. Nature of the data set: Antimicrobial activity against Saccharomyces cerevisiae S100 at 100 microg/ml incubated for 20 hrs by liquid microculture method. The conditions noted are these: dose 100.0 µg/ml. It is filed as functional, organism-based.
The nature of data set [3]: Cytotoxicity against mouse P388 cells at 100 uM. It is filed as toxicity, cell-based.
Data set [4] concerns Trypanosoma cruzi. Nature of the data set: Antitrypanosomal activity against Trypanosoma cruzi epimastigote assessed as inhibition of proliferation by measuring cellular ATP level incubated for 24 hrs by Cell Titer-Glo 2.0 assay. It is filed as functional, organism-based.
For data set [5], the system named is Trypanosoma cruzi. Nature of the data set: Antitrypanosomal activity against Trypanosoma cruzi Tulahuen amastigotes infected in human HT-1080 cells assessed as inhibition of parasite growth incubated for 3 days by light microscopic analysis. It is filed as functional, organism-based. The conditions noted are these: HT-1080, 72 h.

`C\C(=C/C=C/C=C/[C@H]1[C@@H](C)[C@H](O)[C@@H](O)[C@H]2[C@H](O)[C@@H](C)C[C@@H](C)[C@H]12)C(=O)O`: the outcome (in the data set with Kocuria rhizophila; in the data set on Staphylococcus aureus; with Escherichia coli; in data set [1]; in the data set on Candida albicans; in data set [2]) was inactive. Also, the result with Trichophyton rubrum and in the data set on Saccharomyces cerevisiae was inactive. Besides, the Activity result in data set [3] is “Non-Toxic”. Also, the IC50 in the data set on Trypanosoma cruzi [4] stood at 46 µM; with Trypanosoma cruzi [5], 27 µM.
